From patent publication US10947252B2, “Inhibitors of KEAP1-Nrf2 protein-protein interaction” (Janssen Pharmaceutica NV, priority 2018, dated 2021)

What was measured:
[1] = target: Kelch domain of human KEAP1 (321-624 aa) (Homo sapiens (Human), UniProt Q14145); assay: KEAP1 KELCH ThermoFluor binding assay; settings: KEAP Kelch […], 1,8-ANS, pH 7.0, average of results obtained, read-out: Tf Kd;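 further: Ligand-induced melting temperature shift of E. coli-expressed KEAP1 Kelch protein, Kd estimated from concentration-response curves of ΔTm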
[2] = system: Glo-Response ARE-luc2P HEK293 cell line; assay: ARE luciferase reporter cell-based assay; settings: average of results obtained;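 further: luciferase signal tracks Nrf2 activation of the ARE once compounds disrupt KEAP1-Nrf2 binding, read with One-Glo reagent, DMSO serving as low control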

Sequence of Kelch domain of human KEAP1 (321-624 aa) (Q14145 321-624): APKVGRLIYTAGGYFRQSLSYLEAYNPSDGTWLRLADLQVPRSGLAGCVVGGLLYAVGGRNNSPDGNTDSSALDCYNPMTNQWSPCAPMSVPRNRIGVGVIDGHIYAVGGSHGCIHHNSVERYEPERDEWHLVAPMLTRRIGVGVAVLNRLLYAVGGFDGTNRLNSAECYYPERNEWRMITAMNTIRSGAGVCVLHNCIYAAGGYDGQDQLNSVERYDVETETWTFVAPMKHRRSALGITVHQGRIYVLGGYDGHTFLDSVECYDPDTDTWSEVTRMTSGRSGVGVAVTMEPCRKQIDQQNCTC

SMILES: Cc1ccc(C(CC(=O)O)c2ccc3c(nnn3CC3CC3)c2C)cc1CN1CC2(COC2)Oc2ccccc2S1(=O)=O (stereo not drawn) [Example 74, 3-(1-(Cyclopropylmethyl)-4-methyl-1H-benzo[d][1,2,3]triazol-5-yl)-3-(3-((1′,1′-dioxidospiro[benzo[b][1,4,5]oxathiazepin-4,3′-oxetan]-2,(3H)-yl)methyl)-4-methylphenyl)propanoic Acid]
- Kd [1]: < 1 nM
- EC50 ([2]; Homo sapiens, HEK293, 24 h): 24 nM

SMILES: Cc1ccc([C@H](c2ccn3c(C(F)F)nnc3c2C)C(C)(C)C(=O)O)nc1CN1CC2(CCOCC2)Oc2nc(OCCN3CCCCC3)c(C)cc2S1(=O)=O (single isomer, unassigned) [Example 355, (*R)-3-(3-(Difluoromethyl)-8-methyl-[1,2,4]triazolo[4,3-a]pyridin-7-yl)-2,2-dimethyl-3-(5-methyl-6-((8′-methyl-1′,1′-dioxido-7′-(2-(piperidin-1-yl)ethoxy)-2,3,5,6-tetrahydrospiro[pyran-4,4′-pyrido[2,3-b][1,4,5]oxathiazepin]-2′(3′H)-yl)methyl)pyridin-2-yl)propanoic Acid]
- Kd [1]: 3070 nM
- EC50 ([2]; Homo sapiens, HEK293, 24 h): 1140 nM

SMILES: Cc1cnc2c(c1)S(=O)(=O)N(Cc1cc([C@H](CC(=O)O)c3ccn4c(C(F)F)nnc4c3C)ccc1C)CC1(CC1)O2 (single isomer, unassigned) [Example 536, (*S)-3-(3-(Difluoromethyl)-8-methyl-[1,2,4]triazolo[4,3-a]pyridin-7-yl)-3-(4-methyl-3-((8′-methyl-1′,1′-dioxidospiro[cyclopropane-1,4′-pyrido[2,3-b][1,4,5]oxathiazepin]-2′(3′H)-yl)methyl)phenyl)propanoic Acid]
- Kd [1]: < 1 nM
- EC50 ([2]; Homo sapiens, HEK293, 24 h): 59.7 nM

SMILES: CCn1nnc2c(C)c([C@@H](CC(=O)O)c3ccc(C)c(CN4C[C@H]5CCCCN5c5ncccc5S4(=O)=O)n3)ccc21 (single isomer, unassigned) [Example 306, (*R)-3-(6-(((*R)-5,5-Dioxido-7,7a,8,9,10,11-hexahydro-6H-dipyrido[2,1-d:2′,3′-f][1,2,5]thiadiazepin-6-yl)methyl)-5-methylpyridin-2-yl)-3-(1-ethyl-4-methyl-1H-benzo[d][1,2,3]triazol-5-yl)propanoic Acid]
- Kd [1]: < 1 nM
- EC50 ([2]; Homo sapiens, HEK293, 24 h): 9.4 nM

SMILES: Cc1ccc([C@@H](CC(=O)O)c2ccc3c(nnn3CC3CC3)c2C(F)F)cc1CN1C[C@H]2CCCCN2c2ncccc2S1(=O)=O (single isomer, unassigned) [Example 173, (*R)-3-(1-(Cyclopropylmethyl)-4-(difluoromethyl)-1H-benzo[d][1,2,3]triazol-5-yl)-3-(3-(((R)-5,5-dioxido-7,7a,8,9,10,11-hexahydro-6H-dipyrido[2,1-d:2′,3′-f][1,2,5]thiadiazepin-6-yl)methyl)-4-methylphenyl)propanoic Acid]
- Kd [1]: 4 nM
- EC50 ([2]; 24 hours): 540 nM

SMILES: Cc1cnc2c(c1)S(=O)(=O)N(Cc1cc([C@H](c3ccn4c(C(F)(F)F)nnc4c3C)C(C)(C)C(=O)O)ccc1C)C[C@@]1(CCOC1)O2 (single isomer, unassigned) [Example 388, (*R)-2,2-Dimethyl-3-(4-methyl-3-(((*R)-8′-methyl-1′,1′-dioxido-4,5-dihydro-2H-spiro[furan-3,4′-pyrido[2,3-b][1,4,5]oxathiazepin]-2′(3′H)-yl)methyl)phenyl)-3-(8-methyl-3-(trifluoromethyl)-[1,2,4]triazolo[4,3-a]pyridin-7-yl)propanoic Acid]
- Kd [1]: < 1 nM
- EC50 ([2]; Homo sapiens, HEK293, 24 h): 1 nM

SMILES: Cc1ccc(C(CC(=O)O)c2ccc3c(nnn3C3CC3)c2C)cc1CN1C[C@@H]2CCCCN2c2ncccc2S1(=O)=O (mixture of isomers) [Example 397, (R/S)-3-(1-Cyclopropyl-4-methyl-1H-benzo[d][1,2,3]triazol-5-yl)-3-(3-(((*S)-5,5-dioxido-7,7a,8,9,10,11-hexahydro-6H-dipyrido[2,1-d:2′,3′-f][1,2,5]thiadiazepin-6-yl)methyl)-4-methylphenyl)propanoic Acid]
- Kd [1]: < 1 nM
- EC50 ([2]; Homo sapiens, HEK293, 24 h): 11 nM

SMILES: CCn1nnc2c(C)c(C(CC(=O)O)c3ccc(C)c(CN4C[C@H]5CCCCN5c5ncccc5S4(=O)=O)n3)ccc21 (stereo in doubt) [Example 304, 3-(6-(((*R)-5,5-Dioxido-7,7a,8,9,10,11-hexahydro-6H-dipyrido[2,1-d:2′,3′-][1,2,5]thiadiazepin-6-yl)methyl)-5-methylpyridin-2-yl)-3-(1-ethyl-4-methyl-1H-benzo[d][1,2,3]triazol-5-yl)propanoic Acid]
- Kd [1]: < 1 nM
- EC50 ([2]; Homo sapiens, HEK293, 24 h): 2.9 nM

SMILES: Cc1ccc([C@H](CC(=O)O)c2ccn3c(C(F)(F)F)nnc3c2C)cc1CN1C[C@H]2COCCN2c2ncc(C#N)cc2S1(=O)=O (single isomer, unassigned) [Example 196, (*S)-3-(3-(((*S)-3-Cyano-5,5-dioxido-7a,8,10,11-tetrahydro-[1,4]oxazino[3,4-d]pyrido[2,3-f][1,2,5]thiadiazepin-6(7H)-yl)methyl)-4-methylphenyl)-3-(8-methyl-3-(trifluoromethyl)-[1,2,4]triazolo[4,3-a]pyridin-7-yl)propanoic Acid]
- Kd [1]: < 1 nM
- EC50 ([2]; Homo sapiens, HEK293, 24 h): 15 nM

SMILES: Cc1ccc([C@H](CC(=O)O)c2ccc3c(nnn3C3CC3)c2C)cc1CN1CC2(COC2)Oc2ccccc2S1(=O)=O (single isomer, unassigned) [Example 215, (*S)-3-(1-Cyclopropyl-4-methyl-1H-benzo[d][1,2,3]triazol-5-yl)-3-(3-((1,1-dioxidospiro[benzo[b][1,4,5]oxathiazepine-4,3′-oxetan]-2(3H)-yl)methyl)-4-methylphenyl)propanoic Acid]
- Kd [1]: < 1 nM
- EC50 ([2]; Homo sapiens, HEK293, 24 h): 3.3 nM

SMILES: Cc1cnc2c(c1)S(=O)(=O)N(Cc1nc(C(CC(=O)O)c3ccn4c(C(F)(F)F)nnc4c3C)ccc1C)C[C@H]1CCCCN21 (stereo in doubt) [Example 490, 3-(8-Methyl-3-(trifluoromethyl)-[1,2,4]triazolo[4,3-a]pyridin-7-yl)-3-(5-methyl-6-(((*R)-3-methyl-5,5-dioxido-7,7a,8,9,10,11-hexahydro-6H-dipyrido[2,1-d:2′,3′-f][1,2,5]thiadiazepin-6-yl)methyl)pyridin-2-yl)propanoic Acid]
- Kd [1]: < 1 nM
- EC50 ([2]; Homo sapiens, HEK293, 24 h): 5.85 nM

SMILES: Cc1cnc2c(c1)S(=O)(=O)N(Cc1cc([C@H](c3cc4cc(C)nnc4n3C)C(C)(C)C(=O)O)ccc1C)CC1(CC1)O2 (single isomer, unassigned) [Example 331, (*R)-3-(3,7-Dimethyl-7H-pyrrolo[2,3-c]pyridazin-6-yl)-2,2-dimethyl-3-(4-methyl-3-((8′-methyl-1′,1′-dioxidospiro[cyclopropane-1,4′-pyrido[2,3-b][1,4,5]oxathiazepin]-2′(3′H)-yl)methyl)phenyl)propanoic Acid]
- Kd [1]: < 1 nM
- EC50 ([2]; Homo sapiens, HEK293, 24 h): 17.1 nM

SMILES: Cc1ccc([C@@H](c2ccn3c(C(F)(F)F)nnc3c2)C(C)(C)C(=O)O)cc1CN1CC2(CCOCC2)Oc2ncccc2S1(=O)=O (single isomer, unassigned) [Example 320, (*S)-3-(3-((1′,1′-Dioxido-2,3,5,6-tetrahydrospiro[pyran-4,4′-pyrido[2,3-b][1,4,5]oxathiazepin]-2′(3′H)-yl)methyl)-4-methylphenyl)-2,2-dimethyl-3-(3-(trifluoromethyl)-[1,2,4]triazolo[4,3-a]pyridin-7-yl)propanoic Acid]
- Kd [1]: 831 nM
- EC50 ([2]; Homo sapiens, HEK293, 24 h): 19400 nM

SMILES: Cc1cnc2c(c1)S(=O)(=O)N(Cc1cc([C@@H](c3ccc4c(nnn4C4CC4)c3C)C(C)(C)C(=O)O)ccc1C)CC1(CCNCC1)O2 (single isomer, unassigned) [Example 650, (*S)-3-(1-Cyclopropyl-4-methyl-1H-benzo[d][1,2,3]triazol-5-yl)-2,2-dimethyl-3-(4-methyl-3-((8′-methyl-1′,1′-dioxidospiro[piperidine-4,4′-pyrido[2,3-b][1,4,5]oxathiazepin]-2′(3′H)-yl)methyl)phenyl)propanoic Acid]
- Kd [1]: < 1 nM
- EC50 ([2]; Homo sapiens, HEK293, 24 h): 4.36 nM

SMILES: Cc1cnc2c(c1)S(=O)(=O)N(Cc1cc([C@@H](c3ccn4c(C(F)F)nnc4c3C)C(C)(C)C(=O)O)ccc1C)CC1(COC1)O2 (single isomer, unassigned) [Example 617, (*S)-3-(3-(Difluoromethyl)-8-methyl-[1,2,4]triazolo[4,3-a]pyridin-7-yl)-2,2-dimethyl-3-(4-methyl-3-((8′-methyl-1′,1′-dioxidospiro[oxetane-3,4′-pyrido[2,3-b][1,4,5]oxathiazepin]-2′(3′H)-yl)methyl)phenyl)propanoic Acid]
- Kd [1]: < 1 nM
- EC50 ([2]; Homo sapiens, HEK293, 24 h): 1.15 nM

SMILES: Cc1ccc([C@H](CC(=O)O)c2ccn3c(C(F)(F)F)nnc3c2C)nc1CN1C[C@@H]2CCCCN2c2ncc(Cl)cc2S1(=O)=O (single isomer, unassigned) [Example 521, (*R)-3-(6-(((*S)-3-Chloro-5,5-dioxido-7,7a,8,9,10,11-hexahydro-6H-dipyrido[2,1-d:2′,3′-f][1,2,5]thiadiazepin-6-yl)methyl)-5-methylpyridin-2-yl)-3-(8-methyl-3-(trifluoromethyl)-[1,2,4]triazolo[4,3-a]pyridin-7-yl)propanoic Acid]
- Kd [1]: < 1 nM
- EC50 ([2]; Homo sapiens, HEK293, 24 h): 1.97 nM

SMILES: Cc1ccc(C(CC(=O)O)c2ccn3c(C(F)F)nnc3c2C)cc1CN1CC2(CC2)Oc2ncccc2S1(=O)=O (stereo not drawn) [Example 472, 3-(3-(Difluoromethyl)-8-methyl-[1,2,4]triazolo[4,3-a]pyridin-7-yl)-3-(3-((1′,1′-dioxidospiro[cyclopropane-1,4′-pyrido[2,3-b][1,4,5]oxathiazepin]-2′(3′H)-yl)methyl)-4-methylphenyl)propanoic Acid]
- Kd [1]: < 1 nM
- EC50 ([2]; Homo sapiens, HEK293, 24 h): 245 nM

SMILES: Cc1ncc([C@@H](c2ccc3c(nnn3C3CC3)c2C)C(C)(C)C(=O)O)cc1CN1CC2(CCOCC2)Oc2ncccc2S1(=O)=O (single isomer, unassigned) [Example 45, (*R)-3-(1-Cyclopropyl-4-methyl-1H-benzo[d][1,2,3]triazol-5-yl)-3-(5-((1′,1′-dioxido-2,3,5,6-tetrahydrospiro[pyran-4,4′-pyrido[2,3-b][1,4,5]oxathiazepin]-2′(3′H)-yl)methyl)-6-methylpyridin-3-yl)-2,2-dimethylpropanoic Acid]
- Kd [1]: 42600 nM
- EC50 ([2]; Homo sapiens, HEK293, 24 h): 6560 nM
